Calls of active or inactive are those of the source.
Experiments:
[1] = molecular target: T1, Corticotropin-releasing factor receptor 2/Corticotropin-releasing factor-binding protein (Homo sapiens, UniProt P24387+Q13324); assay: Dose Response confirmation of uHTS hits for small molecule antagonists of the CRF-binding protein and CRF-R2 receptor complex.; assay type: functional; conditions: read-out: IC50_Mean
T1 sequence (Q13324 whole entry): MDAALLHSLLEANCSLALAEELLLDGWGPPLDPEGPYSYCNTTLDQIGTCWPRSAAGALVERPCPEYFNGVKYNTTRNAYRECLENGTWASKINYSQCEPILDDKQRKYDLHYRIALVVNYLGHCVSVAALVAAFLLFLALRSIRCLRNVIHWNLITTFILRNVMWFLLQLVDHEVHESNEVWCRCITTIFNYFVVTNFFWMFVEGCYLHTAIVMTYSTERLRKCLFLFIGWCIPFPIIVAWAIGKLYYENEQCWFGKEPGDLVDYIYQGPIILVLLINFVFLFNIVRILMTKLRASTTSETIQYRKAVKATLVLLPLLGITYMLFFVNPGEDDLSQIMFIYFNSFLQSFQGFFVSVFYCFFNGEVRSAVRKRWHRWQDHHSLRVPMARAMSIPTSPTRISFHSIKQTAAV
T1 sequence (P24387 whole entry): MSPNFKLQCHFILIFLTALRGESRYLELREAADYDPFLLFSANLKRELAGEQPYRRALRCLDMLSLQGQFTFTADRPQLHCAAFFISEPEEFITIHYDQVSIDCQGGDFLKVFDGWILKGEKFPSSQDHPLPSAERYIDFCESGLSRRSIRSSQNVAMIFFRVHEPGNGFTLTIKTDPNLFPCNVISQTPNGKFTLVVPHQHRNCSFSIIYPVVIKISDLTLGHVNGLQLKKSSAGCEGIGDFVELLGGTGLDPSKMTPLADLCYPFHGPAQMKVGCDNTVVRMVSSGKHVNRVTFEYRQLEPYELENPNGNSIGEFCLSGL

[2] = molecular target: T1, Corticotropin-releasing factor receptor 2/Corticotropin-releasing factor-binding protein; assay: activators of CRF receptor 2 with binding protein – uHTS hits, confirmation (AID 602473); assay type: functional; conditions: read-out: EC50_Mean
[3] = blockers of CRF-binding protein–CRF-R2 complex – cell-based, uHTS hits, 384-well, dose response (AID 651639); assay type: functional, Homo sapiens; conditions: read-out: IC50_Mean
Vero [4] = assay: cells; assay type: functional, cell-based; conditions: Chlorocebus sabaeus
[5] = viability of uninfected HEp-2 cells – cell-based, HTS, cytotoxicity control for RSV inhibitor project, dose response (AID 2410); assay type: functional; conditions: human respiratory syncytial virus
Vero [6] = assay: cells; assay type: functional; conditions: Chlorocebus sabaeus
INS1 = assay: INS-1E survival protection against cytokine death – cell-based, luminescence, retest, dose response (AID 449756); assay type: functional; conditions: Rattus norvegicus;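 further: cell death triggered by IL-1 beta plus TNF-alpha plus IFN-gamma mixture; protective hits raise ATP signal compared with cytokine alone wells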
Protein Wnt-3a = Protein Wnt-3a (Mus musculus, UniProt P27467); assay: antagonism of Wnt3a pathway luciferase reporter – Wnt-LIGHT cells, luminescence, selectivity assay for Gli-SUFU antagonist project, dose response (AID 651570); assay type: functional; conditions: read-out: IC50_Mean;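 further: Wnt-LIGHT reporter cells stimulated with conditioned medium from Wnt3a-producing cells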
Beta-galactosidase = Beta-galactosidase (Escherichia coli, UniProt Q8VNN2); assay: Dose response counterscreen for EBI2 assay utilizing the enzyme, b-galactosidase.; assay type: functional
[7] = molecular target: Ras and Rab interactor 1/Tyrosine-protein kinase ABL1 (Homo sapiens, UniProt P00519+Q13671); assay type: functional;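 further: biochemical TR-FRET dose-response test measuring inhibition of binding between Rin1 and Abl proteins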
[8] = molecular target: T2, Short transient receptor potential channel 4 (Mus musculus, UniProt Q9QUQ5); assay: block of DAMGO-driven TRPC4 calcium entry – cell-based, HEK293 TRPC4/mu-opioid, Fluo-4 calcium, dose response (AID 434942); assay type: functional;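 further: potency of inhibitors blocking the TRPC4 calcium response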
T2 sequence (Q9QUQ5 whole entry): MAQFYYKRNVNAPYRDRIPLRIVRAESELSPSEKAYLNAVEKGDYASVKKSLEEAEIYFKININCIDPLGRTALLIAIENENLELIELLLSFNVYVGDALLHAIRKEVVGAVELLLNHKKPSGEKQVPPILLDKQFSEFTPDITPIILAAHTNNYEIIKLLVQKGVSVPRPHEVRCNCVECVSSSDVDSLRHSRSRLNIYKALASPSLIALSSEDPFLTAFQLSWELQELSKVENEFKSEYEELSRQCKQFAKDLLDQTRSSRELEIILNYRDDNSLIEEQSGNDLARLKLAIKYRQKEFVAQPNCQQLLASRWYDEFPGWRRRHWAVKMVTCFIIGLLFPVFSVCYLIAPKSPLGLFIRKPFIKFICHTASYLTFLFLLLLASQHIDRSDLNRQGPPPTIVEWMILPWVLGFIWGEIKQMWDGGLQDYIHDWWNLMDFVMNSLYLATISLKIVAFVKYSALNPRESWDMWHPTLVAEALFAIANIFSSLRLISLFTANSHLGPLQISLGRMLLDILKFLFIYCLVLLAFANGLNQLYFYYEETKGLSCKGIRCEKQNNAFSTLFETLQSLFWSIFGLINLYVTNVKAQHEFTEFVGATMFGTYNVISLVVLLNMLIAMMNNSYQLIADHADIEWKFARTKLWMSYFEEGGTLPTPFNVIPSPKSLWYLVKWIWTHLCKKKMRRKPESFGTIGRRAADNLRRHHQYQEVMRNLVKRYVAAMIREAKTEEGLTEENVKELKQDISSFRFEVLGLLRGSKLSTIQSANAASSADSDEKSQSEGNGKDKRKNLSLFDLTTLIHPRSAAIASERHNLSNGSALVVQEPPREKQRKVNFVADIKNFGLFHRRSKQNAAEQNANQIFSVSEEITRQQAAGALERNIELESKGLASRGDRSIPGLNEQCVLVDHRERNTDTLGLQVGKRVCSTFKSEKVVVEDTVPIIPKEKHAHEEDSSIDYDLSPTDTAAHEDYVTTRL

[9] = loss of viability in HepG2 cells – cell-based, CellTiter-Glo, cherry-picked, cytotoxicity control for Shn3 inhibitor project, dose response (AID 624134); assay type: functional
[10] = non-specific 3'UTR reporter inhibition in Clone20-Shn3RL – cell-based, Renilla luciferase, cherry-picked, counter-screen for Shn3 inhibitor project, dose response (AID 624133); assay type: functional
[11] = reduction of Shn3 3'UTR-driven luciferase in osteoblasts – cell-based, Clone20 osteoblasts, firefly luciferase, cherry-picked, dose response (AID 624132); assay type: functional;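 further: firefly luciferase luminescence from reporter carrying the Shn3 3'UTR in osteoblasts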
[12] = Luminescence Cell-Based Dose Response HTS to Identify Inhibitors of 5'UTR Stem-Loop Driven Prion Protein mRNA Translation in H4 Neuroglioblastoma Cells. [Related pubchem assays: 1827 (Project Summary), 1813 (Primary HTS)]; assay type: functional
[13] = alpha-synuclein stem-loop luciferase translation blockers – H4 neuroglioma cells, luminescence, confirmation (AID 1988); assay type: functional, cell-based
BJ [14] = assay: BJ-TERT fibroblast viability loss – cell-based, RAS-independent, luminescence, dose response (AID 1933); assay type: functional; conditions: Homo sapiens
BJ [15] = assay: cells; assay type: functional, cell-based; conditions: Homo sapiens
[16] = DRD fibroblast viability loss – cell-based, non-viral oncogenic, luminescence, dose response (AID 1934); assay type: functional; conditions: Homo sapiens
BJ [17] = assay: BJ-TERT-LT-ST fibroblast viability loss – cell-based, RAS-independent, luminescence, dose response (AID 1935); assay type: functional; conditions: Homo sapiens;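 further: BJ fibroblasts immortalized with TERT plus LT and ST oncogenes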

Protein Wnt-3a, sequence (P27467 whole entry): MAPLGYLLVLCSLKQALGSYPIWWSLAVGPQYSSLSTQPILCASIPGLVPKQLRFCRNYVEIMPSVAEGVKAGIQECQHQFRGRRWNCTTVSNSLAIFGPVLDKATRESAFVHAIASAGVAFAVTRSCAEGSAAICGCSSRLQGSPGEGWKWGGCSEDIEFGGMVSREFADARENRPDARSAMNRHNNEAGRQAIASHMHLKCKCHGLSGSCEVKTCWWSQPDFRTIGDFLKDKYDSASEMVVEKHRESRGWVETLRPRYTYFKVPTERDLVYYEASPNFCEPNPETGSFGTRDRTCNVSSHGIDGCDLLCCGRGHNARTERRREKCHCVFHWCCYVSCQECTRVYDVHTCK
Ras and Rab interactor 1/Tyrosine-protein kinase ABL1, sequence (P00519 whole entry): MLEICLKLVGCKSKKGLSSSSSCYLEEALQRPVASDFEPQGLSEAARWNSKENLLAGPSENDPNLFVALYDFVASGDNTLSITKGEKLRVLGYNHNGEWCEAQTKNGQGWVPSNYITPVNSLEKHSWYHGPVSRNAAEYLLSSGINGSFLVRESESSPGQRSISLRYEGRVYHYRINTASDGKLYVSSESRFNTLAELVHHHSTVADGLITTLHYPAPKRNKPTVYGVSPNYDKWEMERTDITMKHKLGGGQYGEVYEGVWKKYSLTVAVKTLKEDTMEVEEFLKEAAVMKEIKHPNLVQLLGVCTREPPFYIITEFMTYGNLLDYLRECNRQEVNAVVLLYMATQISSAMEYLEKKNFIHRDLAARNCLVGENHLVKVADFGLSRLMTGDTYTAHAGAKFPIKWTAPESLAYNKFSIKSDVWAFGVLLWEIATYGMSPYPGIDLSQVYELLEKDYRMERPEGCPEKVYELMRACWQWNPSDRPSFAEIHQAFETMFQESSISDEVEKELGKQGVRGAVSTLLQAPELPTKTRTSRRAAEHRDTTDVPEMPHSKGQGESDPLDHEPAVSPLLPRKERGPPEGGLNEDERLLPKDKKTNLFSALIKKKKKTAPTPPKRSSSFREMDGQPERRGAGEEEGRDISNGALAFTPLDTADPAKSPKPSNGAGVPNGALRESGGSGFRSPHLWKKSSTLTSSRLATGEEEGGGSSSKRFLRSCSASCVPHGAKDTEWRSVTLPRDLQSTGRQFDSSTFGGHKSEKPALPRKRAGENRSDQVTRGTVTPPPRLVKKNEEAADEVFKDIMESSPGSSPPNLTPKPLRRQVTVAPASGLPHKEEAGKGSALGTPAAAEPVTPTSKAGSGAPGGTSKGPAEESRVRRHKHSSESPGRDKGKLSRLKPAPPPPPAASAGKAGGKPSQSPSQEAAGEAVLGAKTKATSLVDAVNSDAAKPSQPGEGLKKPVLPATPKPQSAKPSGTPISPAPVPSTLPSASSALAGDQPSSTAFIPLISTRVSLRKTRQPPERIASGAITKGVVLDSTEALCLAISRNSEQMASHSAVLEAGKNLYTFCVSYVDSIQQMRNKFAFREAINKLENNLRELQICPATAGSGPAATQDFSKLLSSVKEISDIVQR
Ras and Rab interactor 1/Tyrosine-protein kinase ABL1, sequence (Q13671 whole entry): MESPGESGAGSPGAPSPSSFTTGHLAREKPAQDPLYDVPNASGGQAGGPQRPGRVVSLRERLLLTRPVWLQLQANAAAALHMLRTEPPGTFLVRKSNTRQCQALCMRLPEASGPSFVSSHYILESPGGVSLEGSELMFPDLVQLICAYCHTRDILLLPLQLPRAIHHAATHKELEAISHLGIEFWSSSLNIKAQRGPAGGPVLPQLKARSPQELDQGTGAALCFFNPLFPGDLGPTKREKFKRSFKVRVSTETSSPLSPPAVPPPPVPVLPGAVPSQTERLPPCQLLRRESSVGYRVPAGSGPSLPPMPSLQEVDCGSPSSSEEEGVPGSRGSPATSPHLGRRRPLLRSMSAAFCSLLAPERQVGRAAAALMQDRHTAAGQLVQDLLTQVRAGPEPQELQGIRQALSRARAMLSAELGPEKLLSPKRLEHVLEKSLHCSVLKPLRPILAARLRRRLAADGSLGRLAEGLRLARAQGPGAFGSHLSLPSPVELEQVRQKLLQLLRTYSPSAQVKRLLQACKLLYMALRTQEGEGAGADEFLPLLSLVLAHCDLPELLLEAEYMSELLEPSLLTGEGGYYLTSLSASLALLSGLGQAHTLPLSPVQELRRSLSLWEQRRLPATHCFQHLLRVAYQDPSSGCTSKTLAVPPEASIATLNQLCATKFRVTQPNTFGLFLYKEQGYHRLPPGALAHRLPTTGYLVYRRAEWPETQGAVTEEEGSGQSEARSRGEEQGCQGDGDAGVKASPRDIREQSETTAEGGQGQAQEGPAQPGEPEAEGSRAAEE
Beta-galactosidase, sequence (Q8VNN2 whole entry): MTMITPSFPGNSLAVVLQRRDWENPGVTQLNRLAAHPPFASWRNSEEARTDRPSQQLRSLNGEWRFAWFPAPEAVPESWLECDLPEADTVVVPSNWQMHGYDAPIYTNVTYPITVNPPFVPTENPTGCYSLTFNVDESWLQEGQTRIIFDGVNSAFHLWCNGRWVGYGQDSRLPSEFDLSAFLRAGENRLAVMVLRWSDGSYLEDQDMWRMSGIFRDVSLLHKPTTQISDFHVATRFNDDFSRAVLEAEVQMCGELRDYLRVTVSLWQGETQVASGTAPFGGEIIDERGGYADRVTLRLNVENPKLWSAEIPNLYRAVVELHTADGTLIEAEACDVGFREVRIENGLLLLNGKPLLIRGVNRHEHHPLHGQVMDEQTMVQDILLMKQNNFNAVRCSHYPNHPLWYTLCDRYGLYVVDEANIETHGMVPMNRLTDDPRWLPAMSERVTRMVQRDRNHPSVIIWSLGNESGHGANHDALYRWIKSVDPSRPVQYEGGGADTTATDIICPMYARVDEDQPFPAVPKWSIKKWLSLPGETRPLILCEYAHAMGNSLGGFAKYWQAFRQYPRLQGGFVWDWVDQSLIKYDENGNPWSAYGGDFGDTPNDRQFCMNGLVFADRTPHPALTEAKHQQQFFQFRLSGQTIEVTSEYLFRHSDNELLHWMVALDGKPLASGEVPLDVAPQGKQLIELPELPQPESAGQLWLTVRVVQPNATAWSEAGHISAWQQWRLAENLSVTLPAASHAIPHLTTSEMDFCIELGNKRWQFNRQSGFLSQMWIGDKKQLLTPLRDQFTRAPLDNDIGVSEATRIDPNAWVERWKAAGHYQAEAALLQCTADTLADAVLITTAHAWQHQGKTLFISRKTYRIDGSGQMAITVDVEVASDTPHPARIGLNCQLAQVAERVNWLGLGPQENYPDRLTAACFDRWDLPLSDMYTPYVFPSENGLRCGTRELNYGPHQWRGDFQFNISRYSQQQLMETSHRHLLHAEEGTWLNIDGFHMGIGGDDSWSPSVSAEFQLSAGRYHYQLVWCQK

CCOC(=O)c1c(-c2ccc(OC)c(OC)c2)csc1NC(=O)C1CCCO1 (stereo not drawn)
IC50 [1]: 3.95 µM (active) | EC50 [2]: > 53 µM (inactive) | IC50 [3]: > 20 µM (inactive)

O=C(Nc1ccccc1SCC1CSc2nc3ccccc3c(=O)n21)c1cccc(Cl)c1 (stereo not drawn)
IC50 (Vero [4]): 14.9 µM (active) | IC50 (cells): 10.3 µM (active) | CC50 [5]: 24.7 µM (active) | CC50 (Vero [6]): > 25 µM (active)

COc1ccc(-[n+]2cc(-c3ccc(OC(F)F)cc3)n3c2CCCCC3)cc1
AC50 (INS1): 2.14 µM (active) | IC50 (Protein Wnt-3a): 12.3 µM (active)

CSc1ccc(CN2CCN(C(=O)COc3ccc(C)cc3)CC2)cc1
IC50 (Beta-galactosidase): > 80 µM (inactive)

CCOc1ccccc1N(C(=O)c1snc(C(N)=O)c1N)C(C(=O)NCc1ccccc1)c1ccc(O)cc1 (stereo not drawn)
IC50 [7]: > 73.5 µM (inactive) | EC50 [8]: 4.22 µM (active)

Cc1cc(C)c(C(N)=O)c(SCC(=O)c2cc(C)n(-c3cc(C)on3)c2C)n1
AC50 [9]: 1.68 µM (active) | IC50 (Protein Wnt-3a): 1.8 µM (active) | AC50 [10]: 0.332 µM (active) | AC50 [11]: 0.942 µM (active)

CC(=O)Nc1cccc(-c2ccnc3c2CC(C(=O)NCc2ccc(N4CCN(C)CC4)cc2)O3)c1 (stereo not drawn)
IC50 [7]: 14.4 µM (inactive)

Cc1cc(C(=O)Cn2nnc3ccccc3c2=O)c(C)n1-c1ccccc1F
IC50 (Vero [4]): 6.16 µM (active) | EC50 [12]: 10.1 µM (active) | IC50 (cells): 30.9 µM (active) | EC50 [13]: 9.28 µM (active) | CC50 [5]: 20.4 µM (active)

O=c1[nH]c(=O)n(-c2ccc(F)cc2)c2c1C(C(F)(F)F)(C(F)(F)F)NC(c1ccc(F)cc1)=N2
EC50 (BJ [14]): > 150 µM (not active) | EC50 (BJ [15]): 66.7 µM (inconclusive) | AC50 (INS1): 5.15 µM (active) | EC50 [16]: 25.7 µM (active) | EC50 (BJ [17]): > 150 µM (not active) | IC50 [3]: 13.2 µM (active)
